How the values were obtained:
[1] = tested on: BRD4; assay: Cellular degradation assay, eGFP-BRD4BD1/BRD4BD2 mCherry reporters in Flip-In 293 cells; type: cell-based; details: BRD4BD1 and BRD4BD2 reporters, 5 h; compound 2 via BD1 and BD2, compound 1 via BD1
Experimental: (§1) IKZF1 (construct IKZF1^Δ1-82/Δ197-238/Δ256-519) BRD2BD1, BRD2BD2, BRD3BD1, BRD3BD2, BRD4BD1, and BRD4BD2 were subcloned into mammalian pcDNA5/FRT Vector (Ampicillin and Hygromycin B resistant) modified to contain MCS-eGFP-P2A-mCherry. Stable cell lines expressing eGFP-protein fusion and mCherry reporter were generated using Flip-In 293 system. Plasmid (0.3 μg) and pOG44 (4.7 μg) DNA were preincubated in 100 μL of Opti-MEM I (Gibco™ Life Technologies™) media containing 0.05 mg/ml Lipofectamine 2000 (Invitrogen™) for 20 min and added to Flip-In 293 cells containing 1.9 ml of DMEM media (Gibco™, Life Technologies™) per well in a 6-well plate format (Falcon®, 353046). […] Titrated compounds were incubated with cells for 5 h following trypsinisation and resuspension in DMEM media, transferred into 96-well plates (353910, Falcon®) and analyzed by flow cytometer (Guava© easyCyte HT, Millipore™) Signal from 5000 cells per well was acquired in singlicate or duplicate and the eGFP and mCherry florescence monitored. Data was analyzed using FlowJo® (FlowJo®, LCC). Forward and side scatter outliers, frequently associated with cell debris, were removed leaving >90% of total cells, followed by removal of eGFP and mCherry signal outliers, leaving 88-90% of total cells creating the set used for quantification. […]

[2] = tested on: BRD2; assay: Cellular degradation assay, eGFP-BRD2BD1/BRD2BD2 mCherry reporters in Flip-In 293 cells; type: cell-based; details: BRD2BD1 and BRD2BD2 reporters, 5 h; compound 2 active via BRD2BD2
Experimental: as §1

[3] = tested on: BRD3; assay: Cellular degradation assay, eGFP-BRD3BD1/BRD3BD2 mCherry reporters in Flip-In 293 cells; type: cell-based; details: BRD3BD1 and BRD3BD2 reporters, 5 h; both compounds active via BD1 and BD2
Experimental: as §1

[4] = tested on: bromodomain proteins BRD2, 3 and 4; assay: Change of cellular protein abundance (TMT quantitative proteomics) in Kelly cells; type: cell-based, human; details: 1 μM, 6 hours, compared to DMSO control
Experimental: Kelly cells were treated with DMSO control (biological triplicates) or 1 μM of inventive compound 1 or compound 2 for 6 hours (biological singlicate). Lysis buffer (8 M Urea, 50 mM NaCl, 50 mM 4-(2hydroxyethyl)-1-piperazineethanesulfonic acid (EPPS) pH 8.5, Protease and Phosphatase inhibitors from Roche) was added to the cell pellets and homogenized by 20 passes through a 21 gauge (1.25 in. long) needle to achieve a cell lysate with a protein concentration between 1-4 mg mL^−1. A Micro BCA™ assay (Pierce™) was used to determine the final protein concentration in the cell lysate. 200 μg of protein for each sample were reduced and alkylated as previously described.
Proteins were precipitated using methanol/chloroform/water (4:1:3). In brief, four volumes of methanol were added to the cell lysate, followed by one volume of chloroform, and finally three volumes of water. The mixture was vortexed and centrifuged to separate the chloroform phase from the aqueous phase. The precipitated protein was washed with three volumes of methanol, centrifuged and the resulting washed precipitated protein was allowed to air dry. Precipitated protein was resuspended in 4 M Urea, 50 mM 4-(2-hydroxyethyl)-1-piperazineethanesulfonic acid (HEPES) pH 7.4, followed by dilution to 1 M urea with the addition of 200 mM EPPS, pH 8. Proteins were first digested with LysC (1:50; enzyme:protein) for 12 hours at room temperature. The LysC digestion was diluted to 0.5 M Urea with 200 mM EPPS pH 8 followed by digestion with trypsin (1:50; enzyme:protein) for 6 hours at 37° C. Tandem mass tag (TMT) reagents (Thermo Fisher Scientific) were dissolved in anhydrous acetonitrile (ACN) according to manufacturer's instructions. Anhydrous ACN was added to each peptide sample to a final concentration of 30% v/v, and labeling was induced with the addition of TMT reagent to each sample at a ratio of 1:4 peptide:TMT label. The 10-plex labeling reactions were performed for 1.5 hours at room temperature and the reaction quenched by the addition of hydroxylamine to a final concentration of 0.3% for 15 minutes at room temperature. The sample channels were combined at a 1:1:1:1:1:1:1:1:1:1 ratio, desalted using C18 solid phase extraction cartridges (Waters) and analyzed by LC-MS for channel ratio comparison. Samples were then combined using the adjusted volumes determined in the channel ratio analysis and dried down in a speed vacuum. The combined sample was then resuspended in 1% formic acid, and acidified (pH 2-3) before being subjected to desalting with C18 SPE (Sep-Pak®, Waters). […]

[5] = tested on: MM1.S cells; assay: MM1.S cell proliferation; type: cell-based; details: Homo sapiens
[6] = target: DDB1ΔB-CRBN (Homo sapiens (Human), UniProt Q96SW2); assay: Atto565-Lenalidomide FP displacement assay (CRBN binding); details: for CRBN binding (in words), IC50 comparable to lenalidomide: FP displacement assay, FIG. 3A-3D; for IC50: FP displacement of 10 nM Atto565-Lenalidomide, 100 nM DDB1ΔB-CRBN, n=3; for Ki: FP displacement of Atto565-Lenalidomide
Chain of DDB1ΔB-CRBN (Q96SW2 whole entry, stated change not applied): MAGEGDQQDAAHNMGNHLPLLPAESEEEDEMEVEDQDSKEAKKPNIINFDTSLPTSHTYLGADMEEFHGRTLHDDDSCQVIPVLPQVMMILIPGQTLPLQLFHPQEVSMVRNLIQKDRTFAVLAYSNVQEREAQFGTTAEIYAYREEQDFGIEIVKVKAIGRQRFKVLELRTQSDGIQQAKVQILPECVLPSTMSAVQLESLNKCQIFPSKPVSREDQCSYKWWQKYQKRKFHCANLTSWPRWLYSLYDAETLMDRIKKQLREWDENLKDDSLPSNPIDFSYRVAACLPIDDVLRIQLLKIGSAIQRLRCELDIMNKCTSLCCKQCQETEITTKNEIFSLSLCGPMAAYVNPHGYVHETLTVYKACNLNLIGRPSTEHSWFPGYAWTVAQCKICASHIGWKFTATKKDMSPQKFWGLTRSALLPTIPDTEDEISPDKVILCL
Experimental: Compounds in Atto565-Lenalidomide displacement assay were dispensed in a 384-well microplate (Corning, 4514) using D300e Digital Dispenser (HP) normalized to 1% DMSO into 10 nM Atto565-Leanlidomide, 100 nM DDB1ΔB-CRBN, 50 mM Tris pH 7.5, 200 mM NaCl, 0.1% Pluronic® F-68 solution (Sigma). Compound titrations were incubated for 60 min at RT. The change in fluorescence polarization was monitored using a PHERAstar® FS microplate reader (BMG Labtech) for 1 h in 120 s cycles. Data from three independent replicates (n=3) was used to estimate IC50 values using variable slope equation in GraphPad Prism 7.

[7] = target: IKZF1 (Homo sapiens (Human), UniProt Q13422+Q96SW2, DEL197-238/DEL256-519); assay: Cellular degradation assay, eGFP-IKZF1/mCherry reporter in Flip-In 293 cells; type: cell-based; details: 5 h incubation, eGFP/mCherry relative abundance, FIG. 1A-1C
Experimental: Following 2-3 passage cycle FACS (FACSAria™ II, BD) was used to enrich for cells expressing eGFP and mCherry. […] Data was analyzed using FlowJo® (FlowJo®, LCC). […] The eGFP protein abundance relative to mCherry was then quantified as a ten-fold amplified ratio for each individual cell using the formula: 10×eGFP/mCherry. The median of the ratio was then calculated per set, normalized to the median of the DMSO ratio, and is denoted as relative abundance.

SMILES	degradation activity against BRD4 (in words) [1]	degradation activity against BRD2 (in words) [2]	degradation activity against BRD3 (in words) [3]	change in relative abundance of endogenous bromodomain proteins (in words) [4]	degradation of common IMiD-dependent off-targets (in words) [4]	IC50 [5] [µM]	CRBN binding (in words), IC50 comparable to lenalidomide [6]	IC50 [6] [µM]	Ki [6] [µM]	activity against the target IKZF1 (degradation, in words) [7]
COC(=O)C[C@@H]1N=C(c2ccc(Cl)cc2)c2c(sc(C(=O)NCCCCCOc3cc4c5c(cccc5c3)C(=O)N(C3CCC(=O)NC3=O)C4=O)c2C)-n2c(C)nnc21 (stereo partly drawn) [Compound 1, methyl 2-((6S)-4-(4-chlorophenyl)-2-((5-((2-(2,6-dioxopiperidin-3-yl)-1,3-dioxo-2,3-dihydro-1H-benzo[de]isoquinolin-5-yl)oxy)pentyl)carbamoyl)-3,9-dimethyl-6H-thieno[3,2-f][1,2,4]triazolo[4,3-a][1,4]diazepin-6-yl)acetate]	active	inactive	active	downregulation of bromodomain proteins BRD4	did not induce degradation	–	–	–	–	–
O=C1CCC(N2C(=O)c3cccc4cccc(c34)C2=O)C(=O)N1 (centres unmarked) [Compound 9, 2-(2,6-dioxopiperidin-3-yl)-1H-benzo[de]isoquinoline-1,3(2H)-dione]	–	–	–	–	–	~21.5	potent binders of CRBN	2.6	0.7	inactive
Cc1sc2c(c1C)C(c1ccc(Cl)cc1)=N[C@@H](CC(=O)NCCCCCCCCNC(=O)COc1cc3c4c(cccc4c1)C(=O)N(C1CCC(=O)NC1=O)C3=O)c1nnc(C)n1-2 (stereo partly drawn) [Compound 2, 2-((S)-4-(4-chlorophenyl)-2,3,9-trimethyl-6H-thieno[3,2-f][1,2,4]triazolo [4,3-a][1,4]diazepin-6-yl)-N-(8-(2-(2-(2,6-dioxopiperidin-3-yl)-1,3-dioxo-2,3-dihydro-1H-benzo[de]isoquinolin-5-yloxy)acetamido)octyl)acetamide]	active	active	active	downregulation of bromodomain proteins BRD2, 3 and 4	did not induce degradation	–	–	–	–	–
Nc1cc2c3c(cccc3c1)C(=O)N(C1CCC(=O)NC1=O)C2=O (centres unmarked) [Compound 11, 5-amino-2-(2,6-dioxopiperidin-3-yl)-1H-benzo[de]isoquinoline-1,3(2H)-dione]	–	–	–	–	–	–	potent binders of CRBN	11.4	3.2	inactive
O=C1CCC(N2C(=O)c3cccc4cc(O)cc(c34)C2=O)C(=O)N1 (centres unmarked) [Compound 10, 2-(2,6-dioxopiperidin-3-yl)-5-hydroxy-1H-benzo[de]isoquinoline-1,3(2H)-dione]	–	–	–	–	–	–	potent binders of CRBN	3.5	0.98	inactive

— patent publication US12030892B2, “CRBN modulators” (DANA-FARBER CANCER INSTITUTE, INC., priority 2018, dated 2024)
